Here are results for 33 molecules from the SangsterLogP compilation.

A short description of one data set: method code SF-AS, from Novello, F.; Sprague, M. (1967). Structure-activity relations among the thiazole diuretics. Ind. Chim. Belge, 32(Spec.No.), 222-225. The settings on record: pH 6.4.
Broadly, the logD is lipophilicity at a set pH, counting ionised and neutral species. Low readings indicate a more hydrophilic compound, high ones a more lipophilic compound. `NS(=O)(=O)c1cc2c(cc1Cl)NC(CSCc1ccccc1)NS2(=O)=O` (stereo not drawn) returned a logD of 1.11.

Still in this data set, the particulars now being: pH 6.5.
Regarding `CCC1Nc2cc(Cl)c(S(N)(=O)=O)cc2S(=O)(=O)N1` (stereo not drawn), the logD was determined as 0.3. Molecule `NS(=O)(=O)c1cc2c(cc1Cl)NC(Cc1ccccc1)NS2(=O)=O` (stereo not drawn) yielded a logD of 0.93. Same read-out and setting: for `NS(=O)(=O)c1cc2c(cc1Cl)NC(CCl)NS2(=O)=O` (stereo not drawn) the value was 0.11.

In the case of `CC1(C)Nc2cc(Cl)c(S(N)(=O)=O)cc2S(=O)(=O)N1`, the logD was 0.15. In turn, `NS(=O)(=O)c1cc2c(cc1Cl)NC(C1CC3C=CC1C3)NS2(=O)=O` (stereo not drawn) registered a logD of 1.8. The same measure, in the same setting: for `NS(=O)(=O)c1cc2c(cc1C(F)(F)C(F)(F)F)N=CNS2(=O)=O` the value was 1.05; for `NS(=O)(=O)c1cc2c(cc1[N+](=O)[O-])N=CNS2(=O)=O`, 0.08; for `NS(=O)(=O)c1cc2c(cc1Cl)NC(C(F)(F)F)NS2(=O)=O` (stereo not drawn), 0.49.

For the molecule `NS(=O)(=O)c1cc2c(cc1F)N=CNS2(=O)=O`, the logD is -0.29. With `NS(=O)(=O)c1ccc2c(c1)S(=O)(=O)NC=N2`, the logD was -0.62.

Regarding `NS(=O)(=O)c1ccc2c(c1)S(=O)(=O)NC(C(Cl)Cl)N2` (stereo not drawn), the logD came out at 0.46. `CC1CCC2(CC1)Nc1ccc(S(N)(=O)=O)cc1S(=O)(=O)N2` (stereo not drawn) gave a logD of 1.56. On the same count and under the same terms, for `CC(C)(C)C1Nc2cc(Cl)c(S(N)(=O)=O)cc2S(=O)(=O)N1` (stereo not drawn) the value was 0.36. The molecule `NS(=O)(=O)c1ccc2c(c1)S(=O)(=O)NC(Cc1ccccc1)N2` (stereo not drawn) gave a log distribution coefficient (logD) of 1.03.

`CC1=Nc2cc(Cl)c(S(N)(=O)=O)cc2S(=O)(=O)N1` had a logD of 0.03. `Cc1cc2c(cc1S(N)(=O)=O)S(=O)(=O)N=CN2` registered a logD of -0.32. `CCCC1=Nc2cc(Cl)c(S(N)(=O)=O)cc2S(=O)(=O)N1` had a logD of 1.15. In the case of `NS(=O)(=O)c1ccc2c(c1)S(=O)(=O)NCN2`, the logD was -0.52. Still for that read-out and setting: for `NS(=O)(=O)c1cc2c(cc1[N+](=O)[O-])NCNS2(=O)=O` the value was 0.2; for `NS(=O)(=O)c1cc2c(cc1Br)N=CNS2(=O)=O`, 0. Same read-out and setting: for `NS(=O)(=O)c1cc2c(cc1Cl)NC(C(Cl)(Cl)Cl)NS2(=O)=O` (stereo not drawn) the value was 0.82; for `NS(=O)(=O)c1cc2c(cc1Cl)NC1(CCCCC1)NS2(=O)=O`, 1; for `CCCCCC1=NS(=O)(=O)c2cc(S(N)(=O)=O)c(Cl)cc2N1`, 2.01. Still for that read-out and setting: for `NS(=O)(=O)c1ccc2c(c1)S(=O)(=O)NC(CC1CCCC1)N2` (stereo not drawn) the value was 1.24. As for `NS(=O)(=O)c1cc2c(cc1Cl)N=C(c1ccccc1)NS2(=O)=O`, the log distribution coefficient (logD) was determined as 1.1. On the same count and under the same terms, for `CC1CCC2(CC1)Nc1cc(Cl)c(S(N)(=O)=O)cc1S(=O)(=O)N2` (stereo not drawn) the value was 0.85; for `NS(=O)(=O)c1cc2c(cc1Br)NCNS2(=O)=O`, 0.08.

Regarding `CC1Nc2cc(Cl)c(S(N)(=O)=O)cc2S(=O)(=O)N1` (stereo not drawn), the log distribution coefficient (logD) was 0.08. As for `NS(=O)(=O)c1cc2c(cc1Cl)N=C(Cc1ccccc1)NS2(=O)=O`, the logD was found to be 1.56. As for `NS(=O)(=O)c1cc2c(cc1Cl)NC(CC1CCCC1)NS2(=O)=O` (stereo not drawn), the log distribution coefficient (logD) is 1.27. `Cc1cc2c(cc1S(N)(=O)=O)S(=O)(=O)NCN2` showed a logD of -0.22. The same measure, in the same setting: for `NS(=O)(=O)c1cc2c(cc1C(F)(F)F)N=CNS2(=O)=O` the value was 0.32.
